Earlier results in patent US12167995B2, “[((1R,2S,5R)-2-isopropyl-5-methyl-cyclohexanecarbonyl)-amino]-acetic acid isopropyl ester for treatment of chronic cough” (AXALBION SA, priority 2019, dated 2024).
“Also recorded” adds a separate entry of the source. Read-outs that look alike come from different tables or passages of the source.

Columns and labels:
[1] = system: isolated guinea pig vagal nerves; conditions: Maher et al., 2014; cited from earlier work
[2] = system: acute cough induced by capsaicin; conditions: MK-7264: in RCC patients or in healthy subjects; cited from earlier work
[3] = system: refractory chronic cough (RCC); conditions: cited from earlier work

Row | SMILES | TRPM8 dependence of inhibition of capsaicin-induced response [1] | effect on acute cough induced by capsaicin [2] | patients with adverse events related to taste (dysgeusia, hypogeusia, or ageusia) ([3]; 50 mg per day) | patients with adverse events related to taste (dysgeusia, hypogeusia, or ageusia) ([3]; 1200 mg per day) | effect on VAS scores in RCC patients ([3]; human, in vivo) | effect on cough frequency in RCC patients ([3]; human, in vivo)
1 | CC(C)[C@@H]1CC[C@@H](C)C[C@H]1O [menthol, (1R,2S,5R)-2-isopropyl-5-methyl-cyclohexanol] | in a TRPM8-independent way | – | – | – | – | –
2 | COc1cc(C(C)C)c(Oc2cnc(N)nc2N)cc1S(N)(=O)=O [MK-7264] | – | not effective for acute cough induced by the tussive stimulus capsaicin | 81% | 100% | poorly effective in improving the VAS scores | efficient in reducing cough frequency; also recorded: efficient in decreasing cough frequency in RCC patients
3 | O=C(Nc1ccccc1Br)N[C@@H]1CCN(c2ccc(C(F)(F)F)cn2)C1 [SB-705498] | – | inhibit acute cough induced by capsaicin | – | – | – | do not reduce cough frequency in RCC patients
